These are literature values, as cited in patent US12194073B1, “Method of arthropod egress” (priority 2023, dated 2025).

Like-named read-outs stand apart in the source and are kept apart here.

The conditions of series [1]: for therapeutic effect: suspension in vegetable oils, glycerol, mineral oil and white petrolatum.
For series [2] the following is noted: for ocular adverse effects: suspension in vegetable oils, glycerol, mineral oil and white petrolatum.
The conditions of series [3]: for shelf stability at ambient temperature: suspension in vegetable oils, glycerol, mineral oil and white petrolatum.
For series [4] the following is noted: squalane, with/without mineral oil, as vehicle.
The test system of another series is Demodex folliculorum. As to conditions: all three concentrations; in vitro; vs 5% permethrin.
For series [5] the following is noted: for drug payload: solution in squalane, with/without mineral oil.
The conditions of series [6]: solution in SFA (F4H5).
The conditions of series [7]: self-emulsifying system; corn oil, PEG-6 esters, Tween 80 and Transcutol.
Experiment in series [8]: not given
This is another data set of the same source.

Experiment in series [9]: not given
This is another data set of the same source.

Where [10] appears, read: suspension in sesame seed oil vs high-dose viscous aqueous formulation.
[11] abbreviates: self-emulsifying system, corn oil, PEG-6 esters, Tween 80 and Transcutol.
Setting [12] is: solution in DMSO and castor oil.
The mark [13] stands for this setting: self-emulsifying system, Capmul MCM, Cremophor RH 40, Transcutol and hydroxypropylmethyl cellulose.
Setting [14] is: self-emulsifying system, S-protected thiolated Eudragit L100-55-BAK ion pair, Labrafil M 1944CS.
Setting [15] is: oleogel, soyabean oil, beeswax and gelator.

Consider `CNC[C@H](O)c1cccc(O)c1` [Phenylephrine], for which, in series [1] (setting [10]), the onset of action result is recorded as “Faster” and the therapeutic response entry is recorded as “higher”.
`CC[C@@H]1C(=O)OC[C@@H]1Cc1cncn1C` [Pilocarpine]: in series [2], the ocular adverse effects entry is listed as “reduced”. For the same compound, the “shelf stability at ambient temperature” value in series [3] is “adverse effects; improved shelf stability at ambient”. Besides, in [1], the therapeutic effect entry is “Improved”.
As for `Cc1ccccc1N1CCN(CCc2nnc3n2CCCC3)CC1` [dapiprazole], the ocular adverse effects result in series [2] is recorded as “reduced”. Also, the “shelf stability at ambient temperature” value in series [3] is “adverse effects; improved shelf stability at ambient”. The therapeutic effect result in series [1] is “Improved”.
For `CC(C)CCCC(C)CCCC(C)CCCCC(C)CCCC(C)CCCC(C)C` (stereo not drawn) [Squalane], the “symptomatic relief in DED (vehicle)” value in series [4] is listed as “Vehicle beneficial for symptomatic relief in DED;”.
Turning to `O=C(O)CCCCCCCC(=O)O` [azelaic acid], the anti-Demodex efficacy result with Demodex folliculorum is “comparable to that of 5% permethrin”.
For the compound `CC(C)OC(=O)CCC/C=C\C[C@@H]1[C@@H](CC[C@@H](O)CCc2ccccc2)[C@H](O)C[C@@H]1O` [Latanoprost], the bioavailability result (solution in SFA (F4H5, F6H8)) is recorded as “eyedrops at relatively lower dose; improved”. In addition, in [1] (solution in SFA (F4H5, F6H8) at relatively lower dose vs marketed aqueous eyedrops), the Clinical efficacy result is given as “Clinical efficacy comparable to marketed aqueous”.
With `CC[C@H]1OC(=O)[C@H](C)[C@@H](O[C@H]2C[C@@](C)(OC)[C@@H](O)[C@H](C)O2)[C@H](C)[C@@H](O[C@@H]2O[C@H](C)C[C@H](N(C)C)[C@H]2O)[C@](C)(O)C[C@@H](C)CN(C)[C@H](C)[C@@H](O)[C@]1(C)O` [Azithromycin], in series [2] (Azyter, solution in MCT), the “adverse events (if any) in clinical trials” value is reported as “mild to moderate” and the tolerability result is listed as “well tolerated”.
`C[C@]12CCC(=O)C=C1CC[C@@H]1[C@@H]2[C@@H](O)C[C@@]2(C)[C@H]1CC[C@]2(O)C(=O)CO` [Hydrocortisone]: the drug payload entry in series [5] is listed as “high drug payload; potential to reduce dosing”.
Consider `C=CC[C@@H]1/C=C(\C)C[C@H](C)C[C@H](OC)[C@H]2O[C@@](O)(C(=O)C(=O)N3CCCC[C@H]3C(=O)O[C@H](/C(C)=C/[C@@H]3CC[C@@H](O)[C@H](OC)C3)[C@H](C)[C@@H](O)CC1=O)[C@H](C)C[C@@H]2OC` [Tacrolimus], for which the intraocular penetration result (solution in SFA (F4H5) vs aqueous suspension) is listed as “greater intraocular penetration than aqueous”. For the same compound, in [6], the “clinical signs of uveitis” value is “Significant improvement in clinical signs of uveitis;”.
On to `CC(C)N1CCN(c2ccc(OCC3COC(Cn4cncn4)(c4ccc(Cl)cc4Cl)O3)cc2)CC1` (stereo not drawn) [Terconazole], for which the drug stability result in series [3] (setting [11]) is on record as “Improved”. In addition, the drug release entry in series [5] (setting [11]) is “rapid”. The “conjunctival irritation in vitro” value in series [7] is recorded as “no”.
On to `CC[C@@H]1/C=C(\C)C[C@H](C)C[C@H](OC)[C@H]2O[C@@](O)(C(=O)C(=O)N3CCCC[C@H]3C(=O)O[C@H](/C(C)=C/[C@@H]3CC[C@H](Cl)[C@H](OC)C3)[C@H](C)[C@@H](O)CC1=O)[C@H](C)C[C@@H]2OC` [Pimecrolimus], for which the drug payload entry in series [5] is “high drug payload; potential to reduce dosing”. For the same compound, the safety entry in series [8] (dog, in vivo) was “Better”. The clinical outcomes in series [8] (solution in corn oil vs ointments, dogs with DED) is given as “Better clinical outcomes”.
With `C[C@]12C=CC(=O)C=C1CC[C@@H]1[C@@H]2[C@@H](O)C[C@@]2(C)[C@H]1CC[C@]2(O)C(=O)CO` [Prednisolone], under “self-emulsifying system, linoleic acid, Cremophor RH 40 and propylene glycol”, the precorneal drainage entry was “reduced”. The drug payload result in series [5] is recorded as “high drug payload; potential to reduce dosing”.
Regarding `O=C(O)c1cccc(-c2noc(-c3ccccc3F)n2)c1` [Ataluren], in [3] (setting [12]), the Sterility entry was “Sterility maintained and drug degradation”; the drug degradation result was “inhibited; no penetration studies performed”.
Turning to `Clc1ccc(COC(Cn2ccnc2)c2ccc(Cl)cc2Cl)cc1` (stereo not drawn) [Econazole nitrate], under setting [13], the penetration result was “Enhanced”. Besides, the “in vitro and in vivo safety” value in [2] (setting [13]) is “acceptable in vitro and in vivo safety”. Also, in [5] (setting [14]), the “in vitro release profile” value is reported as “good in vitro release profile; no in vivo studies”, the mucoadhesion result is on record as “Mucoadhesive” and the “sustained drug release over” value is reported as 8 h. Further, the onset of action entry in series [1] (setting [13]) is recorded as “faster”.
`CN[C@H](CC(C)C)C(=O)N[C@H]1C(=O)N[C@@H](CC(N)=O)C(=O)N[C@H]2C(=O)N[C@H]3C(=O)N[C@H](C(=O)N[C@H](C(=O)O)c4cc(O)cc(O)c4-c4cc3ccc4O)[C@H](O)c3ccc(c(Cl)c3)Oc3cc2cc(c3O[C@@H]2O[C@H](CO)[C@@H](O)[C@H](O)[C@H]2O[C@H]2C[C@](C)(N)[C@H](O)[C@H](C)O2)Oc2ccc(cc2Cl)[C@H]1O` [Vancomycin]: in series [5] (setting [15]), the drug release result was “Extended”; the “release profile and oleogel texture” value was “customisable”.
Turning to ivermectin, the “solubility among the oils tested” value in series [9] is reported as “highest solubility in tea tree oil followed by ethylbutanoate”.
Regarding `O=C(O)c1cn(C2CC2)c2cc(N3CCNCC3)c(F)cc2c1=O` [ciprofloxacin], the drug payload result in series [5] was “high drug payload; potential to reduce dosing”.
As for `C[C@]12C=CC(=O)C=C1CC[C@H]1[C@@H]3C[C@@H](O)[C@](O)(C(=O)CO)[C@@]3(C)C[C@H](O)[C@@]12F` [triamcinolone], in series [5] (setting [15]), the drug release result is reported as “Extended”; the “release profile and oleogel texture” value was “customisable”.
